Measurements: patent US11141475B2, “Inactivating pathogens and producing highly immunogenic inactivated vaccines using a dual oxidation process” (priority 2016, dated 2021)

What was measured:
[1] = system: CHIKV E1 and E2 structural proteins; assay: CHIKV-specific sandwich ELISA with two neutralizing monoclonal antibodies (antigenicity); type: binding, Chikungunya virus; conditions: for CHIKV antigenicity (retained neutralizing epitopes, ELISA): treated 20 hours at room temperature (FIG. 19A)
C. coli [2] = assay: Campylobacter morphology after inactivation (Gram safranin stain); set-up: species or system Campylobacter coli; conditions: 3% H2O2 for 5 hours at room temperature, or dual oxidation
[3] = system: DENV4 envelope structural protein; assay: DENV-specific sandwich ELISA on treated DENV4 (antigenicity); type: binding, dengue virus serotype 4; conditions: for DENV4 antigenicity (retained neutralizing epitopes, ELISA): treated 20 hours at room temperature (FIG. 19B); for DENV4 antigenicity in the dual-oxidation system (ELISA): H2O2 0.01%, CuCl2 1 μM, each compound 10 μM, 20 hrs post-inactivation
DENV2 = DENV2 inactivation kinetics at increasing total viral protein (PFU assay); type: cell-based, dengue virus 2; conditions: 3% H2O2, or 0.01% H2O2 and 1 μM CuCl2, room temperature
[4] = system: YFV envelope structural protein
[5] = system: DENV3 envelope structural protein; assay: DENV-specific sandwich ELISA on treated DENV3 (antigenicity); type: binding, dengue virus 3; conditions: H2O2 0.01%, range of CuCl2 and FeCl3 concentrations
DENV4 = type: cell-based, dengue virus serotype 4
CHIKV = type: cell-based, Chikungunya virus
C. coli [6] = assay: Campylobacter coli inactivation kinetics (viable bacteria, CFU/mL); type: cell-based; conditions: added to H2O2 0.01%, CuCl2 2 μM; MZ 20 μM
vaccinia virus = type: cell-based; conditions: added to H2O2 0.002%, CuCl2 1 μM; MZ 10 μM; PBS pH 7.5
Listeria monocytogenes = Listeria monocytogenes inactivation (CFU/mL); type: cell-based; conditions: added to H2O2 0.10%, CuCl2 10 μM; MZ 100 μM
Shigella dysenteriae = Shigella dysenteriae inactivation (CFU/mL); type: cell-based; conditions: added to H2O2 0.10%, CuCl2 10 μM; MZ 100 μM
smallpox = conditions: in vivo; cited from earlier work
[7] = human, in vivo, 152 mg/kg; cited from earlier work

**Q.** Which “antigenicity, in vitro potency testing using envelope-specific MAbs” value ([1]; 3% H2O2 under standard conditions (7 hours, room temperature)) does the source give for `OO` [3% H2O2, hydrogen peroxide] here?
**A.** nearly complete loss of antigenicity

**Q.** What about the “CHIKV antigenicity (retained neutralizing epitopes, ELISA)” value [1] of the same compound?
**A.** loss of neutralizing epitopes

**Q.** And the “bacterial morphology after inactivation” value (C. coli [2])?
**A.** substantially damaged with clear changes in morphology

**Q.** What about the “DENV4 antigenicity (retained neutralizing epitopes, ELISA)” value [3] of the same compound?
**A.** loss of neutralizing epitopes

**Q.** What about the “dependence of virus inactivation kinetics on total viral protein concentration” value (DENV2) of the same compound?
**A.** protein concentration-independent

**Q.** What about the “YFV antigenicity (neutralizing epitopes)” value [4] of the same compound?
**A.** severe damage to neutralizing epitopes

**Q.** Which “DENV3 antigenicity with combinations of CuCl2 and FeCl3 (ELISA)” value [5] does the source give for `[Cl][Fe]([Cl])[Cl]` [FeCl3] here?
**A.** enhanced antigenicity

**Q.** Which “DENV4 inactivation in the dual-oxidation system (plaque assay)” value (“DENV4 inactivation … (plaque assay)” below) (DENV4) does the source give for `CCCN1C(=O)C(=NNC(N)=S)c2ccccc21` [N-propylisatin β-thiosemicarbazone] here?
**A.** enhanced rates of inactivation

**Q.** What about the “DENV4 antigenicity in the dual-oxidation system (ELISA)” value (“DENV4 antigenicity … (ELISA)” for short) [3] of the same compound?
**A.** superior antigenicity

**Q.** With `NC(=S)NN=C1C(=O)Nc2ccccc21` [isatin β-thiosemicarbazone] as the compound, how does the “DENV4 inactivation … (plaque assay)” value (DENV4) read?
**A.** enhanced rates of inactivation

**Q.** And the “DENV4 antigenicity … (ELISA)” value [3]?
**A.** superior antigenicity

**Q.** With `O=C1Nc2ccccc2C1=O` [isatin] as the compound, how does the “DENV4 inactivation … (plaque assay)” value (DENV4) read?
**A.** do not appear to increase the rate of inactivation

**Q.** And the “DENV4 antigenicity … (ELISA)” value [3]?
**A.** protection of protein antigens from oxidative damage

**Q.** For `CN1C(=O)/C(=N\NC(N)=S)c2ccccc21` [methisazone, N-methylisatin β-thiosemicarbazone], which “CHIKV retained antigenicity with increasing methisazone relative to the transition metal” value ([1]; H2O2 0.02%, CuCl2 1 μM, ELISA at 20 hrs) is on record?
**A.** concomitant improvements

**Q.** And the “CHIKV antigenicity (retained neutralizing epitopes, ELISA)” value [1]?
**A.** maintained or significantly improved antigenicity

**Q.** What about the “CHIKV inactivation in the absence of copper” value (CHIKV) of the same compound?
**A.** minimal impact

**Q.** And the “CHIKV inactivation rates with increasing methisazone relative to the transition metal” value (CHIKV)?
**A.** concomitant improvements

**Q.** What about the “increase of the rate of inactivation vs dual oxidation alone, CHIKV” value (CHIKV) of the same compound?
**A.** 10- to 20 fold

**Q.** What about the “rate of dual-oxidation-based inactivation, CHIKV” value (CHIKV) of the same compound?
**A.** substantially increase the rate

**Q.** What about the “inactivation rate of Campylobacter coli” value (C. coli [6]) of the same compound?
**A.** substantially enhanced inactivation rates

**Q.** And the “rate of dual-oxidation-based inactivation, vaccinia virus” value (vaccinia virus)?
**A.** substantially increase the rate

**Q.** What about the “DENV4 inactivation in the absence of copper” value (DENV4) of the same compound?
**A.** minimal impact

**Q.** And the “increase of the rate of inactivation vs dual oxidation alone, DENV4” value (DENV4)?
**A.** 10- to 20 fold

**Q.** And the “rate of dual-oxidation-based inactivation, DENV4” value (DENV4)?
**A.** substantially increase the rate

**Q.** And the “DENV4 antigenicity (retained neutralizing epitopes, ELISA)” value [3]?
**A.** maintained or significantly improved antigenicity

**Q.** And the “inactivation rate of Listeria monocytogenes” value (Listeria monocytogenes)?
**A.** substantially enhanced inactivation rates

**Q.** What about the “inactivation rate of Shigella dysenteriae” value (Shigella dysenteriae) of the same compound?
**A.** substantially enhanced inactivation rates

**Q.** And the “close contacts who developed mild smallpox” value (smallpox)?
**A.** 0.27%

**Q.** What about the “close contacts who developed mild smallpox (cases/contacts)” value (smallpox) of the same compound?
**A.** 3/1101

**Q.** What about the “deaths among close contacts” value (smallpox) of the same compound?
**A.** no deaths

**Q.** And the “non-vaccinated subjects who contracted smallpox” value (smallpox)?
**A.** 2%

**Q.** What about the “non-vaccinated subjects who contracted smallpox (cases/subjects)” value (smallpox) of the same compound?
**A.** 2/102

**Q.** What about the serious adverse events [7] of the same compound?
**A.** lack of serious adverse events

**Q.** With `NNC(N)=O` [semicarbazide] as the compound, how does the “DENV4 inactivation … (plaque assay)” value (DENV4) read?
**A.** do not appear to increase the rate of inactivation

**Q.** And the “DENV4 antigenicity … (ELISA)” value [3]?
**A.** protection of protein antigens from oxidative damage

**Q.** For `NNC(N)=S` [thiosemicarbazide], which “DENV4 inactivation … (plaque assay)” value (DENV4) is on record?
**A.** enhancement of inactivation

**Q.** And the “DENV4 antigenicity … (ELISA)” value [3]?
**A.** superior antigenicity
